Data on 2 compounds can be found in patent publication US20210059964A1, “Anti-I-Type Allergy Agent, Degranulation Inhibitor for Basophils and Mast Cells, Anti-Dementia Agent, Agent for Improving/Inhibiting Short-Term Memory Impairment” (Mitsui Sugar Co., Ltd., priority 2018, published 2021).

Structures are written as SMILES.

In one assay the test system is RBL-2H3 cells. The assay can be described thus: RBL-2H3 cell degranulation inhibition test. The assay is classed as cell-based, rat. Conditions: untreated control = 100. On the procedure:
Whether or not an anti-I-type allergy agent has a degranulation inhibitory action can be confirmed through the following method. For example, cells, such as rat basophilic leukemia cells (RBL-2H3 cells), which extracellularly release […] containing histamine through cross-linking of IgE bound on a cell surface due to an antigen are used. The extent to which the degranulation of a specimen to which an anti-I-type allergy agent is added is inhibited when these cells are stimulated by the antigen is calculated compared to a specimen to which no anti-I-type allergy agent is added. RBL-2H3 cells, which were rat basophilic leukemia cells, (National Institutes of Biomedical Innovation, Health and Nutrition) were seeded in a 96-well plate and were then cultured overnight. […] Then, the cells were washed with the buffer solutions. Furthermore, the prepared 1,000, 500, and 250 μg/mL test solutions were added thereto so that the final concentrations became 500 μg/mL (Example 1), 250 μg/mL (Example 2), and 125 μg/mL (Example 3), respectively. Thereafter, the mixtures were allowed to react at 37° C. for 10 minutes. Then, DNP-labeled human serum albumin was added thereto, and the mixtures were further allowed to react at 37° C. for 3 hours. […] For each sample of Examples 1 to 3, Comparative Example 1, a positive control, an antigen-unstimulated control, and sample blanks, the absorbance of p-nitrophenol generated by reaction between a substrate and β-hexosaminidase present in granules was measured (at a measurement wavelength of 405 nm and a control wavelength of 650 nm) using a microplate reader (SpectraMax M2e, Molecular Devices, LLC.) The emission rate was obtained using the following equation from the absorbance of each sample with respect to the absorbance of Comparative Example 1, and each degranulation rate was calculated from the emission rate. In the equation, “absorbance on cell supernatant” and “absorbance on cell solution side” are values obtained by subtracting the sample blanks. Emission rate (%)=absorbance on cell supernatant side/(absorbance on cell supernatant side+absorbance on cell solution side) Degranulation rate (%)={average value of (emission rate of test solution−emission rate of antigen-unstimulated control)/(emission rate of untreated control−emission rate of antigen-unstimulated control)}×100

The test system of assay [1] is short-term memory impairment caused by accumulation of amyloid β proteins. The assay can be described thus: Y-shaped maze test in mice injected with amyloid β. The assay is classed as in vivo. Conditions: 100 mg/kg oral once a day. As for the experimental part:
p-Coumaric acid (trans-p-coumaric acid, Tokyo Chemical Industry Co., Ltd.) was stored at room temperature (control temperature: 18.0° C. to 28.0° C.) until it was used in a test. Injection water (Otsuka distilled water, Otsuka Pharmaceutical Factory, Inc.) was prepared as a medium in which p-coumaric acid was to be dissolved. The required amount of p-coumaric acid was weighed out and dissolved in the injection water. Then, the dissolved p-coumaric acid was diluted to a predetermined concentration to obtain a test solution.
Amyloid β (Amyloid-β Protein (25-35, Polypeptide Laboratories) to be used in an amyloid β solution was stored in a freezer (control temperature: −30° C. to −20° C.) until it was to be used in a test. Amyloid β was dissolved in injection water to 2 mM to prepare an amyloid β solution.
Male Slc:ddY mice (SPF, Japan SLC, Inc.) were used as test animals 5-week-old mice were obtained as the mice. Mice are animal species generally used in behavioral pharmacology tests, and maintenance of their strains is clear. The body weight range of the mice 1 day after the acquisition was 23.8 to 30.0 g.
Grouping was performed through a random sampling method on the start day of administration of a test solution so that the average body weight of each group was approximately uniform. As a group configuration, there were three groups: a pseudo-operation group, a medium control group, and a p-coumaric acid administration group. In the p-coumaric acid administration group, the amount of solution administered was calculated as 10 mL/kg based on the body weight on the administration day so that the amount of p-coumaric acid administered was 100 mg/kg per mouse. A 0.5% (w/v) methyl cellulose solution was administered to the pseudo-operation group and the medium control group at 10 mL/kg.
The start day of administration of a test solution was regarded as day 1 of administration, the test solution was administered once a day, and an amyloid β solution was injected into the mice on day 8 of the administration. Thereafter, a Y-shaped maze test was carried out on day 14 of the administration. Each procedure will be described below.
The administration route was oral administration. Regarding the administration method, a test solution was orally administered according to a usual method used in test facilities using a polypropylene disposable injection cylinder (TERUMO CORPORATION) equipped with a disposable oral sonde for mice (Fuchigami Kikai). At the time of the administration operation, the test solution was mixed by inversion every time it was administered to a mouse, and was then sucked into the injection cylinder. On the day of injection of an amyloid β solution, the test solution was administered after the injection of the amyloid β solution. […]

The mark [2] stands for this setting: day 14, 8 minutes in maze, mean ± standard error.

For `COC[C@H]1OC(=O)c2coc3c2[C@@]1(C)C1=C(C3=O)[C@@H]2CCC(=O)[C@@]2(C)C[C@H]1OC(C)=O` [Wortmannin, reference compound], the degranulation rate in the assay on RBL-2H3 cells (Wortmannin final concentration 25 nmol/L) stood at 39±6.4%.
With `O=C(O)/C=C/c1ccc(O)cc1` [p-Coumaric acid], the degranulation rate in the assay with RBL-2H3 cells (p-coumaric acid final concentration 125 μg/mL) is reported as 78±8.1%. Also, the degranulation rate in the assay with RBL-2H3 cells (p-coumaric acid final concentration 250 μg/mL) is 46±8.0%. Also, the degranulation rate in the assay with RBL-2H3 cells (p-coumaric acid final concentration 500 μg/mL, anti-DNP-IgE sensitised, DNP-labeled human serum albumin stimulated) is given as 12±3.0%. In addition, in assay [1] (setting [2]), the “Spontaneous alternation behavior number” value is on record as 21.3 ± 1.5, the “Spontaneous behavior alternation rate (%)” value is given as 66.0 ± 1.4% and the Total entry number came out at 34.2 ± 2.1. In addition, the “spontaneous alternation behavior rate compared with medium control group” value in assay [1] (day 14, significant difference p<0.01) was “higher than that of the medium control group”.
